According to patent US20240360126A1, “PYRAZOLO[3,4-B]PYRIDINE COMPOUNDS FOR THE TREATMENT OF AUTOIMMUNE DISEASE” (Hoffmann-La Roche Inc., priority 2021, published 2024):
Where two headings read alike, the source gives them in different places.

How the values were obtained:
[1] = Single dose pharmacokinetics (PK) study in male Wister-Han rats; type: in vivo; settings: rat; for clearance / half-life / AUC(0-t) / Vd / Cmax: male, Wister-Han, plasma; for Vd: read-out: Vss; for F: dose normalized AUC0-last after IV and PO dose
Protocol: Pharmacokinetic properties of selected compounds were assessed by single dose PK studies in Male Wister-Han Rats (vendor: Beijing Vital River Laboratory Animal Technology Co., Ltd). Briefly, two groups of animals were administered a single dose of respective compound intravenously (IV, bolus) at 2 mg/kg or orally (PO, by gavage) at 10 mg/kg. Blood samples (approximately 150 μL) were collected via Jugular vein at 5 min (only for IV), 15 min, 30 min, 1 h, 2 h, 4 h, 7 h and 24 h post-dose. Blood samples were placed into tubes containing EDTA-K2 anticoagulant and centrifuged at 3000 rpm for 15 min at 4° C. to separate plasma from the samples. After centrifugation, the resulting plasma was transferred to clean tubes for bioanalysis with LC/MS/MS. The pharmacokinetic parameters were calculated using non-compartmental analysis. The volume of distribution (Vss), half-life (T1/2) and clearance (CL) were obtained based on the plasma concentration-time curve after IV dose. The peak concentration (Cmax) was recorded directly from experimental observations after PO dose. The area under the plasma concentration-time curve (AUC0-last) was calculated using the linear trapezoidal rule up to the last detectable concentration. The bioavailability (F) was calculated based on the dose normalized AUC0-last after IV and PO dose.
The Vss of a drug represents the degree to which a drug is distributed in body tissue rather than the plasma. Vss is directly proportional with the amount of drug distributed into tissue. A higher Vss indicates a greater amount of tissue distribution.

[2] = 3T3 in vitro phototoxicity assay (Neutral Red uptake); type: cell-based, mouse; settings: mouse, Balb/c 3T3 mouse fibroblasts (clone A 31, ATCC CCL 163); approx. 5 J/cm^2 UVA light
Source text: (§1) Phototoxicity is defined as a toxic response that is elicited after the first exposure of the skin to certain chemicals and subsequent exposure to light, or that is induced similarly by skin irradiation after systemic administration of a chemical substance. The assay used in this study is designed to detect the phototoxic potential of a chemical by using a simple in vitro cytotoxicity assay with Balb/c 3T3 mouse fibroblasts. The principle of this test is a comparison of the cytotoxicity of a chemical when tested with and without exposure to a non-toxic dose of UVA-light. Cytotoxicity is expressed as a dose dependent reduction of the growth rate of cells as determined by uptake of the vital dye Neutral Red one day after treatment.
(§2) Preparation of Stock Solution and Dosage of Test Item A small amount of substance was weighed and formulated freshly in DMSO just before the start of the exposure of the cells. This stock solution or appropriate dilutions with DMSO were added to the cell suspensions to obtain the required final concentrations. All solutions were generally prepared in Eppendorf caps and discarded after use.
(§3) • Chlorpromazine (HCL) (Sigma, Batch/Lot No.: 120M1328V), test concentration: 300 μg/mL, Solvent: PBS/3% DMSO
(§4) For this study the Neutral Red uptake (NRU) assay of Borenfreund and Puemer (Borenfreund, E, Puemer J A. Toxicity determined in vitro by morphological alterations and Neutral Red absorption. Toxicology Lett. 1985; 24:119-124) modified according to INVITTOX protocol No 78 (ERGATT/FRAME data bank of in vitro techniques in toxicology. INVITTOX PROTOCOL No 78. 3T3 NRU Phototoxicity Assay. March 1994) has been adapted to examine a possible phototoxic potential of the test item. This assay is based on the active uptake of the Neutral Red dye into the lysosomes of cultured murine fibroblasts. Because lysosomal membranes are known to be a site of action of many phototoxic compounds, this assay can provide a measure of potential for phototoxic injury.
(§5) A murine fibroblasts clone A 31 (ATCC no. CCL 163—passage No. 108) were cultured in 175 cm^2 tissue culture grade flasks, containing sDMEM (Dulbecco's […] Essential Medium, supplemented with 10% fetal calf serum, 2 mM L-glutamine, 100 units/ml Penicillin and 100 μg/ml streptomycin) at 37° C. in a humidified atmosphere of 6% CO2. Before cells approach confluence they were removed from flasks by trypsinisation. Prior to use in an assay, the cells were transferred to 96-well microtiter plates at a concentration of 1×10^4 cells/well in 100 μl volumes of sDMEM and allowed to attach for 24 h. […]
(§6) For each test item the microtiter plates were prepared according to Table 6. […] UV flux was measured with a UV-meter (Dr. Gröbel RM21). […]

[3] = system: Balb/c 3T3 mouse fibroblasts; assay: as above; type: cell-based; settings: IC50 with and without UV exposure compared; cut-off >5
Source text: as §1, §2, §3, §4, §5, §6

[4] = IV 2 mg/kg, read-out: IV AUC0-last
[5] = PO 10 mg/kg, read-out: PO AUC0-last

clearance ([1]; IV 2 mg/kg) [mL/min/kg]	half-life ([1]; IV 2 mg/kg) [h]	AUC(0-t) [1, 4] [ng·h/mL]	Vd ([1]; IV 2 mg/kg) [L/kg]	Cmax ([1]; PO 10 mg/kg) [ng/mL]	AUC(0-t) [1, 5] [ng·h/mL]	F [1] [%]	SMILES	IC50 at 1 h [2] [µg/mL]	Phototoxicity factor [3]
16	14.7	1520	16.8	465	7510	100	Cc1cc(N2CCC(c3ncc(N4CCNCC4)cc3C)CC2)c2cnn(C)c2n1 [Example 7, 1,6-dimethyl-4-[4-(3-methyl-5-piperazin-1-yl-2-pyridyl)-1-piperidyl]pyrazolo[3,4-b]pyridine]	–	–
10.3	15.7	2200	12.5	620	9260	84.3	CO[C@@H]1CN(c2cnc([C@@H]3CCN(c4cc(C)nc5c4cnn5C)C[C@H]3C)c(C)c2)C[C@H]1N [Example 26, (3R,4R)-1-[6-[(3S,4R)-1-(1,6-dimethylpyrazolo[3,4-b]pyridin-4-yl)-3-methyl-4-piperidyl]-5-methyl-3-pyridyl]-4-methoxy-pyrrolidin-3-amine]	–	–
30.2	8.84	974	16.7	122	1800	37	Cc1cc(N2CC[C@@H](c3ncc(N4CCOC[C@@H](N)C4)cc3C)[C@H](C)C2)c2cnn(C)c2n1 [Example 28, (6S)-4-[6-[(3S,4R)-1-(1,6-dimethylpyrazolo[3,4-b]pyridin-4-yl)-3-methyl-4-piperidyl]-5-methyl-3-pyridyl]-1,4-oxazepan-6-amine]	> 120	1
32.8	7.26	1060	13.2	216	2840	53.4	Cc1cc(N2CC[C@H](c3ccc(N4CCOC[C@@H](N)C4)cn3)[C@@H](C)C2)c2cnn(C)c2n1 [Example 40, (6S)-4-[6-[(3R,4S)-1-(1,6-dimethylpyrazolo[3,4-b]pyridin-4-yl)-3-methyl-4-piperidyl]-3-pyridyl]-1,4-oxazepan-6-amine]	> 120	1
